Results published in US8816095B2, “Na channels, disease, and related assays and compositions” (Georgetown University, priority 2008, dated 2014).

Key:
hNav1.7 = biological target: T1, hNav1.7 (Homo sapiens, UniProt Q15858); test: Fluorescent (FRET) based sodium channel assay, hNav1.7; assay type: cell-based; conditions: HEK293 stably transfected with hNav1.7, 20 μM veratridine, read-out: hNav 1.7 IC50
T1 construct: expressed in transfected cells; host or cells: HEK293
Description: Two isoforms of the channel were examined: hNav1.5, a cardiac sodium channel associated with arrhythmias, and hNav1.7, an isoform found in the peripheral nervous system.
HEK293 cells stably transfected with either hNav1.5 or hNav1.7 were plated at approximately 11,000-20,000 cells/well in flat bottom, poly-D-lysine coated black-wall, clear-bottom, 384-well plates (Becton Dickinson, Bedford, Mass.), and incubated overnight at 37° C. in a 10% CO2 atmosphere in growth medium. Cells were washed with 0.03 mL of Dulbecco's phosphate buffered saline (D-PBS) containing calcium and magnesium. Cells were then incubated with 0.025 mL of a solution containing 10 μM CC2-DMPE and 0.02% pluronic acid in D-PBS with calcium and magnesium; supplemented with 10 mM glucose, and 10 mM Hepes-NaOH, pH 7.4. […] Afterwards, cells were incubated in the dark at 25° C. for 45 min with 0.025 mL of a solution containing 5 μM DiSBAC2(3) in VIPR-S, in the absence or presence of test compound. At the end of the incubation period, the plate was placed in a FLIPR TETRA instrument (MDS Analytical Technologies, Sunnyvale Calif.), illuminated at 390-420 nm, and fluorescence emissions were recorded at approximately 1 Hz at 460 and 580 nm. Following a 7 second baseline reading, 0.025 mL of VIPR-S containing 10 μM veratridine for Nav1.5 or 20 μM veratridine for Nav1.7 was added to each well, and the emissions of both dyes were recorded for an additional 33 seconds. The change in fluorescence resonance energy transfer (FRET) ratio (F/F0) was calculated as: F/F0=((A460/A580/(I460/I580) where A and I represent the readings after or before addition of veratridine, respectively, at the indicated wavelengths. For I, the readings from 2-5 seconds were averaged, and for A, readings from 3 seconds after the signal had reached a plateau level (usually within 30-40 s) were also averaged. Triplicate measurements were performed for each experimental condition and the data were averaged.

PC-3 cells = test: PC-3 MTT cell viability assay; assay type: cell-based; conditions: Homo sapiens, read-out: GI50 ± SEM (10 μM), DPH and JDA-3-135 previously determined
Text: Following the determination that compound CDPNS inhibits the VGSCs that are present in androgen independent PC-3 cells, a 3-(4,5-Dimethylthiazol-2-yl)-2,5-diphenyltetrazolium bromide (MTT) cell viability assay was utilized to measure the ability of compound CDPNS to inhibit PC-3 cell growth via VGSC blockade. In this experiment data yielded from CDPNS was compared to previously determined DPH and JDA-3-135 antiproliferation data (Table 10).

hERG potassium channels = biological target: T2, hERG potassium channels (Homo sapiens, UniProt Q12809); test: hERG binding assay ([35S]MK-499 displacement); conditions: [35S]MK-499, HEK-293 hERG membranes
T2 construct: expressed in transfected cells; host or cells: HEK-293 (membranes)
Text: All four compounds were also counter-screened for human ether-a-go-go-related gene (hERG) activity against the radio-ligand MK-0499. Blockade of hERG K^+ channels is widely regarded as the predominant cause of drug-induced QT prolongation. (Aronov, A J Med Chem. 2006 Nov. 16; 49(23):6917-21).
MK-499, a potent hERG blocker, was used in a ligand binding assay to evaluate the binding of test compounds to hERG potassium channels as previously described (Wang, J et al. Am J Physiol Heart Circ Physiol, 2003, 284: H256-H267).^2 Test compounds were incubated with 0.05 nM of radiolabeled MK-499 ([35S]MK-499; specific Activity=1,279,010 μCi/μmol) in an assay buffer solution (70 mM NaCl, 60 mM KCl, 10 mM HEPES/NaOH (pH 7.4), 2 mM MgCl2, 1 mM CaCl2) also containing membranes isolated from HEK-293 cells stably expressing hERG channels in 96 well polypropylene deep-well assay plates at room temperature (25° C.) for >90 min. Assay plates were rinsed three time with buffer (130 mM NaCl, 10 mM HEPES/NaOH (pH 7.4), 2 mM MgCl2, 1 mM CaCl2) and the solution transferred to a Packard FilterMate Universal Harvester apparatus and filtered using PerkinElmer UniFilter-96 GF/C 96-well white microplates pre-soaked with 0.3% BSA (10 mL/L of 30% BSA). Plates were dried overnight at 37° C., or for 2 hrs at 56° C. The bottom of the plates were sealed and 0.025 mL of Microscint 0 was added to each well. The plates were top sealed and counted for 2 min/well in a Packard TopCount Scintillation counter. Test compounds were evaluated in a five point titration format using half-log steps from 0.3 μM to 30 μM. […] Less than 5% of the added radioactivity was retained on the filters. Assays were performed in triplicate.

[1] = Incidence of prostate cancer in epileptic men treated with sodium channel blockers; parameters: species or system human; conditions: 1427 epileptic men given drug vs 14270 control, 1994 to 2003
Text: The incidence of prostate cancer in epileptic men treated with sodium channel blockers was studied from 1994 to 2003. In the study, 1427 epileptic men were given phenyloin as a sodium channel blocker while 14270 epileptic men were not given a sodium channel blocker (control).

neuronal VGSCs = conditions: read-out: inactivated state-dependent blocking activity IC50 in neuronal VGSCs; cited from earlier work
[2] = tested on: Na+ channel site 2 binding site; test: [3H]-BTX assay, rat forebrain membranes; conditions: ± S.E.M., n in brackets
Description: In order to determine if the hermitamides bind to the sodium channel, the natural products, their enantiomers, and the racemic mixture were tested for their ability to displace [^3H]-batrachatoxin. Batrachatoxin is a lipid-soluble neurotoxin that binds to site 2 of the sodium channel. This site is known to overlap with the local anesthetic binding […]. Ligands known to bind to […] of the sodium channel include anesthetics, anticonvulsants and antiarrthymics. As a control, phenyloin, a clinically-used sodium channel blocker that is known to displace [^3H]BTX was also included.
The assays were run at 10 μM and recorded as percent displacement of BTX.
Briefly, rat forebrain membranes (10 mg tissue/well) were incubated with [^3H]-BTX (30-60 Ci/mmol). […] The reaction was terminated by rapid vacuum filtration of the reaction contents onto glass fiber filters. Radioactivity trapped onto the filters was determined and compared with control values to ascertain any interactions of the test compound with the Na^+ channel site 2 binding site. Aconitine (1 μM) was used as a positive control (Sigma Aldrich, Inc., St. Louis, Mo.).

T2 sequence (Q12809 whole entry): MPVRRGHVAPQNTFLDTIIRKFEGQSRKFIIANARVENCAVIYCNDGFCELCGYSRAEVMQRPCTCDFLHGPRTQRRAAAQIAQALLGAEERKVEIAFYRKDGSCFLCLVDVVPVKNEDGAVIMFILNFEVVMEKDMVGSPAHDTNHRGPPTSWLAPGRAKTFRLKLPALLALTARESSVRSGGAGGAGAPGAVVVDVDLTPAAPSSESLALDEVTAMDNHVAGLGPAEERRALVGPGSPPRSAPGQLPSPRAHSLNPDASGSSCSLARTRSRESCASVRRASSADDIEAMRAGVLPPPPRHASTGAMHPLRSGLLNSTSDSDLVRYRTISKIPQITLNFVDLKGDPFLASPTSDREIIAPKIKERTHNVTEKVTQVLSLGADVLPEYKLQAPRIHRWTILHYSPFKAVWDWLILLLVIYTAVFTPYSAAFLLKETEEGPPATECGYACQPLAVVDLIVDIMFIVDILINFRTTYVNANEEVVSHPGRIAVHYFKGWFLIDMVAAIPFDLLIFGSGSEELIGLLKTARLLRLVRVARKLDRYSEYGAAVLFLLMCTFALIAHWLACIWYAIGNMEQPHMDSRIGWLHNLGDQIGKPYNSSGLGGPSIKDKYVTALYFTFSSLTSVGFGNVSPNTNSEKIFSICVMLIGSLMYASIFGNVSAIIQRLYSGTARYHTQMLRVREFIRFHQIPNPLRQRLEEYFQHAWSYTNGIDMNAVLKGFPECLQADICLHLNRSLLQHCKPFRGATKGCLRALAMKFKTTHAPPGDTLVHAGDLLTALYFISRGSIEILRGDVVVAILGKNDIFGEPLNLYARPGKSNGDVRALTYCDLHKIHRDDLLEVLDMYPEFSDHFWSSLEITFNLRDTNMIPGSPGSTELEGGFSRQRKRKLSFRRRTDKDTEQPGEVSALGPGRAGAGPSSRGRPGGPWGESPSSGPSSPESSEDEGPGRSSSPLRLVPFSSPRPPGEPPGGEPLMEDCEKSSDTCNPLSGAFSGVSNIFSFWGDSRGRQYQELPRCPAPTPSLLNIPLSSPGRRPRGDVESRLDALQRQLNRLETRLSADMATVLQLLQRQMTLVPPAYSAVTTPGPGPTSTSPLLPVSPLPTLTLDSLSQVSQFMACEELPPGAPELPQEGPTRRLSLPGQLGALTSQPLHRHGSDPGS
T1 sequence (Q15858 whole entry): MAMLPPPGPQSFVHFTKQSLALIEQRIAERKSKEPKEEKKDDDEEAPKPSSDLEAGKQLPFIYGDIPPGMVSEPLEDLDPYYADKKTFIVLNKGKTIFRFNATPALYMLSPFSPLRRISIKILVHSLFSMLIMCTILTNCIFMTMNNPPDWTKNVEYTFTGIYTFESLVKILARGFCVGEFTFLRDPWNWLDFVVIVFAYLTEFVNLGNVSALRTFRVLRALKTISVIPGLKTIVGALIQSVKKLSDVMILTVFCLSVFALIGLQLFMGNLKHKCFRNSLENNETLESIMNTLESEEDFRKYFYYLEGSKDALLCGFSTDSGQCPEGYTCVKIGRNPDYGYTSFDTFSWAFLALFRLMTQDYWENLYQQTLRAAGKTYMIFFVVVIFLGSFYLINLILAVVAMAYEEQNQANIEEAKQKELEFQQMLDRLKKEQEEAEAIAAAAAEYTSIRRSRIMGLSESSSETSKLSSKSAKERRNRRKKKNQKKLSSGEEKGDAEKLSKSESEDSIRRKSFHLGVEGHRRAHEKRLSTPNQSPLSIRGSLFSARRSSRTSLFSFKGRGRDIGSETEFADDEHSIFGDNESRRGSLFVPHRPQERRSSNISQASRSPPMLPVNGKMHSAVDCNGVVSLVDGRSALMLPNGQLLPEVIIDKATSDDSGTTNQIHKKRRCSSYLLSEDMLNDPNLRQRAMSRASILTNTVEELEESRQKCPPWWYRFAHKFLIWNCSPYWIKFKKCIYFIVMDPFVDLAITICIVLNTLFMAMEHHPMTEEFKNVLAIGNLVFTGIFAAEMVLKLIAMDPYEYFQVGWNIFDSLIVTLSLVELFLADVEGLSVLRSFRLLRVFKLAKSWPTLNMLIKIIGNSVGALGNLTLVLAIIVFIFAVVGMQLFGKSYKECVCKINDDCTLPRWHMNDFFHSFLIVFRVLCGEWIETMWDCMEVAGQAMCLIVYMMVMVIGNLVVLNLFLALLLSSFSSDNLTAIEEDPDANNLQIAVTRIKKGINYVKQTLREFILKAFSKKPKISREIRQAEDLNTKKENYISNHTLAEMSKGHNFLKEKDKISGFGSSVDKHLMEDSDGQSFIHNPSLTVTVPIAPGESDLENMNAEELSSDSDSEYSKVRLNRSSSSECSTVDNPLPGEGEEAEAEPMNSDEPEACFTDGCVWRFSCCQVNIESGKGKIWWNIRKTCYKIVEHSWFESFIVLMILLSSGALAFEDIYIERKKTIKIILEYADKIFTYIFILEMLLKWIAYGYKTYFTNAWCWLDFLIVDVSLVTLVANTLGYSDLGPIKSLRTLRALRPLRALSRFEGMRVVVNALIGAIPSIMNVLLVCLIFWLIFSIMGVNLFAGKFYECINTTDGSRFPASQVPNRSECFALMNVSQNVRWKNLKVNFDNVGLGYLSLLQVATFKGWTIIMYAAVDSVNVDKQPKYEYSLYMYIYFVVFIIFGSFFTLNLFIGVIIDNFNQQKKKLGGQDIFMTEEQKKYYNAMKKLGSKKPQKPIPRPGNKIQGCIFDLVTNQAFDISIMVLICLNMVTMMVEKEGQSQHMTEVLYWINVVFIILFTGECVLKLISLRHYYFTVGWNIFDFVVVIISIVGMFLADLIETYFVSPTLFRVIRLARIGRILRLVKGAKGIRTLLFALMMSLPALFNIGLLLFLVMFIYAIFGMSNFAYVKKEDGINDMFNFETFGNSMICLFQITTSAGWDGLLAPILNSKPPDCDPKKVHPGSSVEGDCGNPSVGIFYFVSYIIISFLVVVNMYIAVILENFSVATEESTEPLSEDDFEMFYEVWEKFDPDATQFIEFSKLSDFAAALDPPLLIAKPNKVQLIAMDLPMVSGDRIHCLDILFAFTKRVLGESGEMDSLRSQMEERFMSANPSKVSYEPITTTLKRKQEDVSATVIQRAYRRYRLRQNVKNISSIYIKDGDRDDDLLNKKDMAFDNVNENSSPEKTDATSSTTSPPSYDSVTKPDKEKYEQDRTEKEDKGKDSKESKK

## O=C1NC(=O)C(c2ccccc2)(c2ccccc2)N1 [DPH, Diphenylhydantoin, reference compound]
hNav1.7
  IC50: > 100 µM
PC-3 cells
  GI50: > 100 µM
hERG potassium channels; 0.3 μM
  % inhibition for hERG assay, 0.3 μM: 9%
hERG potassium channels; 1 μM
  % inhibition for hERG assay, 1 μM: 20%
hERG potassium channels; 3 μM
  % inhibition for hERG assay, 3 μM: 28%
hERG potassium channels; 10 μM
  % inhibition for hERG assay, 10 μM: 17%
hERG potassium channels; 30 μM
  % inhibition for hERG assay, 30 μM: 40%
[1]
  less likely to be diagnosed with prostate cancer: 40%
Neuronal VGSCs
  IC50: 40 µM
[2]
  % [3H]-BTX Displacement At 10 μM: 19.78 ± 1.21 (2) %
